Measured values from patent US20240083888A1, “SMALL MOLECULE INHIBITOR FOR CATHEPSIN C AND MEDICINAL USE THEREOF” (REISTONE BIOPHARMA COMPANY LIMITED, priority 2020, published 2024).
Counter-ions that a name gives are not always drawn. Like-named read-outs stand apart in the source and are kept apart here.

Columns and labels:
rhCatC = rhCatC (Homo sapiens (Human), UniProt P53634); experiment: In vitro enzyme activity experiment of rhCatC (AMC fluorescence assay); assay type: biochemical; conditions: rhCatC enzyme, substrate H-Gly-Arg-AMC; read-out: Biological activity IC50
Sequence of rhCatC (P53634 25-134): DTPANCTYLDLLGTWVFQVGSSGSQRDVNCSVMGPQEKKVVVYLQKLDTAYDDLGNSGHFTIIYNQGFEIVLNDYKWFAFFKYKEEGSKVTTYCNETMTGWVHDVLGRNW
Sequence of rhCatC (P53634 231-394): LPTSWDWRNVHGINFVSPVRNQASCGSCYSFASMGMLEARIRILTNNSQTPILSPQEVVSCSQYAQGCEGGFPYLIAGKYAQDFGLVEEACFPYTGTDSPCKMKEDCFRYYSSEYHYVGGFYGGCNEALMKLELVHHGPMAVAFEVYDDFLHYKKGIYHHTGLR
Sequence of rhCatC (P53634 395-463): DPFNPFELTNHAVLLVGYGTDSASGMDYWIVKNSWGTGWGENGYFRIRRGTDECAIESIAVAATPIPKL
Description: The in vitro inhibitory effect of compounds and positive control on rhCatC enzyme activity was evaluated by AMC fluorescence assay. rhCatC can catalyze the reaction of substrate peptide H-Gly-Arg-AMC, and release AMC to generate fluorescence. […] The compound was diluted with DMSO to a 384-well echo plate at a concentration of 100× of the highest concentration at the beginning of the experiment. 0.2 μL of the diluted compound was pipetted to a black-bottomed 384-well reaction plate for later use. The negative control well was DMSO. • 2) Activation of rhCatC: RhCatC and rhCatL were added to the activation buffer to obtain a final concentration of rhCatC of 100 μg/mL and a final concentration of rhCatL of 20 μg/mL, and incubated at room temperature for 1 hour. • 3) Enzyme activity reaction: Activated rhCatC was diluted to 0.4 μg/mL with the reaction buffer. The solution was added to the black-bottom 384-well reaction plate ([…]). 10 μL of the buffer was added for the vehicle control group. The plate containing compounds in its wells was incubated at room temperature for 30 minutes.
The RLU data was read, the inhibition rate was calculated, and the IC50 value was calculated according to the fitting curve of concentration and inhibition rate.

CatC = CatC (Homo sapiens (Human), UniProt P53634); experiment: In vitro CatC cell activity experiment in U937 cell line; assay type: cell-based
Description: The U937 cell line was resuscitated and passed for about two generations, and the cell line with good growth status was selected. The cell suspension was transferred into a centrifuge tube, and centrifuged at 800 to 1000 rpm for 3 to 5 minutes. The supernatant was discarded. An appropriate volume of culture medium was added to the centrifuge tube, which was gently pipetted to resuspend the cells evenly. The cells were counted using a Vi-Cell XR cell counter. The cell suspension was adjusted to an appropriate concentration. The cell suspension was added into a 384-well plate ([…]). The compound was formulated into a 10 mM solution with DMSO. The compound was diluted with DMSO to obtain a 1 mM solution, and a semi-logarithmi dilution was carried out by HPD300 with DMSO to obtain 10 concentrations. Gly-Phe-AFC was formulated into a 35 mM solution with DMSO and divided. […] After adding the compounds and incubating for 1 hour in an incubator, substrate-AFC was added (12.5 μL was added to the plate). The plate was incubated for 30 minutes and read. […] XLFit was used to draw the drug efficacy inhibition rate curve and calculate the IC50 value. 4-parameter model [fit=(A+((B−A)/(1+((C/x)^D))))] was used.

[1] = U937 cells, CatC cell activity, read-out: Biological activity IC50

Compound	IC50 (rhCatC) [nM]	IC50 (CatC; [1]) [nM]	IC50 (CatC) [nM]
N#CC(Cc1ccc2c(c1)CCc1ccccc1-2)NC(=O)C1(N)CCOCC1 (stereo not shown) [Compound 7, 4-Amino-N-(1-cyano-2-(9,10-dihydrophenanthren-2-yl)ethyl)tetrahydro-2H-pyran-4-carboxamide]	6.8	10.2	–
N#C[C@H](Cc1ccc2c(c1)CCc1ccccc1-2)NC(=O)[C@@H]1CNCCCO1 [Compound 8, (S)—N—((S)-1-Cyano-2-(9,10-dihydrophenanthren-2-yl)ethyl)-1,4-oxazepane-2-carboxamide]	60	220	–
N#CC(Cc1cc2c(cc1F)-c1ccc(F)cc1CO2)NC(=O)[C@@H]1CNCCCO1 (stereo partly drawn) [Compound 12, (2S)—N-(1-Cyano-2-(2,8-difluoro-6H-benzo[c]chromen-3-yl)ethyl)-1,4-oxazepane-2-carboxamide]	16	–	23
N#Cc1ccc2c(c1)COc1cc(CC(C#N)NC(=O)[C@@H]3CNCCCO3)ccc1-2 (stereo partly drawn) [Compound 13, (2S)—N-(1-Cyano-2-(8-cyano-6H-benzo[c]chromen-3-yl)ethyl)-1,4-oxazepane-2-carboxamide]	37	–	87.6
N#C[C@H](Cc1ccc2c(c1)OCc1cc(F)c(F)cc1-2)NC(=O)[C@@H]1CNCCCO1 [Compound 16, (S)—N—((S)-1-Cyano-2-(8,9-difluoro-6H-benzo[c]chromen-3-yl)ethyl)-1,4-oxazepane-2-carboxamide]	91	–	186
N#C[C@H](Cc1ccc2c(c1)OCc1cc(F)c(F)cc1-2)NC(=O)C1(N)CCOCC1 [Compound 17, (S)-4-Amino-N-(1-cyano-2-(8,9-difluoro-6H-benzo[c]chromen-3-yl)ethyl)tetrahydro-2H-pyran-4-carboxamide]	5.7	–	6.2
N#Cc1cc2c(cn1)-c1cc(F)c(CC(C#N)NC(=O)[C@@H]3CNCCCO3)cc1OC2 (stereo partly drawn) [Compound 18, (2S)—N-(1-Cyano-2-(3-cyano-9-fluoro-5H-chromeno[4,3-c]pyridin-8-yl)ethyl)-1,4-oxazepane-2-carboxamide]	49	–	29.5
N#C[C@H](Cc1cc2c(cc1F)-c1ccc(F)cc1CO2)NC(=O)[C@@H]1CNCCCO1 [Compound 20, (S)—N—((S)-1-Cyano-2-(2,8-difluoro-6H-benzo[c]chromen-3-yl)ethyl)-1,4-oxazepane-2-carboxamide]	11	–	7.8
N#Cc1ccc2c(c1)COc1cc(C[C@@H](C#N)NC(=O)[C@@H]3CNCCCO3)c(Cl)cc1-2 [Compound 21, (S)—N—((S)-2-(2-Chloro-8-cyano-6H-benzo[c]chromen-3-yl)-1-cyanoethyl)-1,4-oxazepane-2-carboxamide]	–	–	24.6
N#CC(Cc1ccc2c(c1)OCc1cc(F)ccc1-2)NC(=O)C1(N)CCOCC1 (stereo not shown) [Compound 22, 4-Amino-N-(1-cyano-2-(8-fluoro-6H-benzo[c]chromen-3-yl)ethyl)tetrahydro-2H-pyran-4-carboxamide formate]	3.2	–	5.5
N#CC(Cc1cc2c(cc1F)-c1ccc(F)cc1CO2)NC(=O)C1(N)CCOCC1 (stereo not shown) [Compound 24, 4-Amino-N-(1-cyano-2-(2,8-difluoro-6H-benzo[c]chromen-3-yl)ethyl)tetrahydro-2H-pyran-4-carboxamide]	2.7	–	4.3
N#Cc1ccc2c(c1)COc1cc(CC(C#N)NC(=O)C3(N)CCOCC3)ccc1-2 (stereo not shown) [Compound 25, 4-Amino-N-(1-cyano-2-(8-cyano-6H-benzo[c]chromen-3-yl)ethyl)tetrahydro-2H-pyran-4-carboxamide]	3.1	–	5.52
N#Cc1ccc2c(c1)COc1cc(C[C@@H](C#N)NC(=O)[C@@H]3C[C@@H]4CCC[C@@H]4N3)c(F)cc1-2 [Compound 26, (2S,3aS,6aS)—N—((S)-1-Cyano-2-(8-cyano-2-fluoro-6H-benzo[c]chromen-3-yl)ethyl)octahydrocyclopenta[b]pyrrole-2-carboxamide]	8.9	6.7	–
N#CC(Cc1ccc2c(c1)OCc1ccc(C3COC3)cc1-2)NC(=O)[C@@H]1CNCCCO1 (stereo partly drawn) [Compound 28, (2S)—N-(1-Cyano-2-(9-(oxetan-3-yl)-6H-benzo[c]chromen-3-yl)ethyl)-1,4-oxazepane-2-carboxamide]	–	–	50.1
CS(=O)(=O)c1ccc2c(c1)COc1cc(CC(C#N)NC(=O)[C@@H]3CNCCCO3)c(F)cc1-2 (stereo partly drawn) [Compound 29, (2S)—N-(1-Cyano-2-(2-fluoro-8-(methylsulfonyl)-6H-benzo[c]chromen-3-yl)ethyl)-1,4-oxazepane-2-carboxamide]	17.1	–	36.8
CS(=O)(=O)c1ccc2c(c1)COc1cc(C[C@@H](C#N)NC(=O)[C@@H]3CNCCCO3)c(F)cc1-2 [Compound 30, (S)—N—((S)-1-Cyano-2-(2-fluoro-8-(methylsulfonyl)-6H-benzo[c]chromen-3-yl)ethyl)-1,4-oxazepane-2-carboxamide]	10	–	9.6
N#Cc1ccc2c(c1)-c1cc(F)c(CC(C#N)NC(=O)[C@@H]3CNCCCO3)cc1OC2 (stereo partly drawn) [Compound 31, (2S)—N-(1-Cyano-2-(9-cyano-2-fluoro-6H-benzo[c]chromen-3-yl)ethyl)-1,4-oxazepane-2-carboxamide]	–	–	38.4
N#CC(Cc1cc2c(cc1F)-c1ccc(S(=O)(=O)N3CCC3)cc1CO2)NC(=O)[C@@H]1CNCCCO1 (stereo partly drawn) [Compound 35, (2S)—N-(2-(8-(Azetidin-1-ylsulfonyl)-2-fluoro-6H-benzo[c]chromen-3-yl)-1-cyanoethyl)-1,4-oxazepane-2-carboxamide]	15	37.9	–
N#CC(Cc1ccc2c(c1)OCCc1cc(F)ccc1-2)NC(=O)C1(N)CCOCC1 (stereo not shown) [Compound 36, 4-Amino-N-(1-cyano-2-(9-fluoro-6,7-dihydrodibenzo[b,d]oxepin-3-yl)ethyl)tetrahydro-2H-pyran-4-carboxamide]	7.1	23.7	–
N#CC(Cc1ccc2c(c1)COCc1cc(F)ccc1-2)NC(=O)C1(N)CCOCC1 (stereo not shown) [Compound 37, 4-Amino-N-(1-cyano-2-(9-fluoro-5,7-dihydrodibenzo[c,e]oxepin-3-yl)ethyl)tetrahydro-2H-pyran-4-carboxamide]	14	8.6	–
CN1Cc2cc(F)ccc2-c2ccc(C[C@@H](C#N)NC(=O)C3(N)CCOCC3)cc2C1=O [Compound 40, (S)-4-Amino-N-(1-cyano-2-(9-fluoro-6-methyl-5-oxo-6,7-dihydro-5H-dibenzo[c,e]azepin-3-yl)ethyl)tetrahydro-2H-pyran-4-carboxamide]	3.7	10.3	–
CN1Cc2cc(C#N)ccc2-c2cc(F)c(C[C@@H](C#N)NC(=O)[C@@H]3CNCCCO3)cc2C1=O [Compound 41, (S)—N—((S)-1-Cyano-2-(9-cyano-2-fluoro-6-methyl-5-oxo-6,7-dihydro-5H-dibenzo[c,e]azepin-3-yl)ethyl)-1,4-oxazepane-2-carboxamide]	30.5	117	–
N#C[C@H](Cc1ccc2c(c1)CCN(c1ccc(F)cc1)C2)NC(=O)C1(N)CCOCC1 [Compound 57, (S)-4-Amino-N-(1-cyano-2-(2-(4-fluorophenyl)-1,2,3,4-tetrahydroisoquinolin-6-yl)ethyl)tetrahydro-2H-pyran-4-carboxamide]	48	–	–
N#C[C@H](Cc1ccc2c(c1)CC(=O)N(c1ccc(F)cc1)C2)NC(=O)C1(N)CCCCC1 [Compound 58, (S)-1-Amino-N-(1-cyano-2-(2-(4-fluorophenyl)-3-oxo-1,2,3,4-tetrahydroisoquinolin-6-yl)ethyl)cyclohexane-1-carboxamide]	–	99.3	–
